Laboratory results: patent US5500430A, “Amidic derivatives of glutamic, aspartic and 2-amino adipic acids, a process for preparing same, and anti-gastrin composition containing the derivatives” (Rotta Research Laboratorium S.p.A., priority 1990, dated 1996)

What was measured:
[1] = tested on: mouse colic adenocarcinoma; assay: Colic tumorous growth induced by pentagastrin in mice; format: in vivo; settings: 21 days
Text: Inhibitory effect on the rate of growth of tumorous colic cells induced by pentagastrin
Gastrin has a trophic effect on the digestive epithelium.
Upon the basis of this premise, it was wished to investigate whether the gastrin-specific antagonists of the invention could antagonise the growth of experimentally-induced gastrointestinal tumours.
Male mice weighing 20-25 g were inoculated subcutaneously in the interscapular region with a suspension of 8×10^4 tumour cells of a mouse colic adenocarcinoma.
After 21 days, the animals were killed and the fundic mucosa and the tumours were removed, weighed and extracted to determine the DNA.

[2] = tested on: gastric acid secretion induced by pentagastrin; assay: Antisecretive activity in conscious dogs carrying gastric fistulae; format: in vivo, dogs (beagles); settings: for ED50: Canis lupus familiaris, iv, read-out: ID50 (the source's name)
Description: Antisecretive activity in conscious dogs
Male beagles weighing about 10 Kg were used and carried gastric fistulae at the level of the greater curvature, connected near the antral region, steel cannulae 5 cm long and 2 cm wide being inserted for collecting the gastric juices externally. After a period of about one month to recover from the operation, and after suitable conditioning, the animals were treated with pentagastrin at a dose of 3 mcg/Kg/h. The Stimulant, dissolved in a physiological solution, was perfused into the femoral vein for 180 minutes at a rate of 1.9 ml/h. After perfusion for 60 minutes (the basal stimulation) the product under test, dissolved in a physiological solution (1 ml/Kg), was administered in a bolus into the contra-lateral vein and, at the same time, the perfusion of the stimulant continued for a further 120 minutes. The acid secretion was recorded continuously as a function of time.
The activity of the product was evaluated as the percentage reduction in the secreted acidity after the administration of the product compared with the base acidity measured during the first 60 minutes of collection during which only the pentagastrin was present, for each of the periods 0-60 and 60-120 minutes after the product had been administered in a bolus.
Different doses of the compounds (C-1 and C-5) tested were administered so that an ID50, that is the dose (in mg/Kg I.V.) capable of inhibiting the effect of the pentagastrin by 50% could be calculated.
The results obtained are given in the following table (Tab. 2) in which the % variations from the base (the mean ± standard deviations calculated on the values obtained from 4 animals) are given for the various doses administered under the stimulus of 3 mcg/Kg/h of pentagastrin, as well as the activities of the compounds, calculated as their ID50s, and the correlation coefficients of the regression lines calculated on the basis of the experimental data.

[3] = target: T1, gastrin receptor sites on the cerebral cortex membranes of mice (Mus musculus, UniProt P56481); assay: Inhibition of the binding of pentagastrin to mouse cortical membranes
T1 construct: Mouse cortical tissue; from tissue; host or cells: mouse cerebral cortex membranes
T1 sequence (P56481 1-453): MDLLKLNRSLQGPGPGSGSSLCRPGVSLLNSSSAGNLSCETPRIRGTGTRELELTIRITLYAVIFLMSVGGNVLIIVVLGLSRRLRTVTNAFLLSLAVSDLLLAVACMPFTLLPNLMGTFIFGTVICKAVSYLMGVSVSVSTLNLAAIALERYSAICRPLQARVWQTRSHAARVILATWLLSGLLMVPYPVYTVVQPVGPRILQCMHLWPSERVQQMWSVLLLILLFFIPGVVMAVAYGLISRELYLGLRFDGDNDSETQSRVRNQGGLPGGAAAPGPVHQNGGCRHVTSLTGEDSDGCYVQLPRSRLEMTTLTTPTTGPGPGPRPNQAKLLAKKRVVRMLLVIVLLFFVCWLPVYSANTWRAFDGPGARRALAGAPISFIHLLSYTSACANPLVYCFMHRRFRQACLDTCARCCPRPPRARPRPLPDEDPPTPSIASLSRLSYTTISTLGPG
Text: Tests on binding to cerebral cortex membranes of mice
The capacities of some of the compounds of the invention to inhibit the binding of pentagastrin to the gastrin receptor sites on the cerebral cortex membranes of mice was to be evaluated. Pentagastrin tritiate[beta-alanyl-3-3H(N)] was used as the ligand.
Mouse cortical tissue Was homogenised cold in 20 volumes of tris buffer (pH 7.7). After washing and centrifuging, the final pellet was resuspended in 20 volumes of binding buffer containing, inter alia, TRIS, BSA and Bacitracin. 0.4 ml of the membrane thus obtained were then incubated with a radioactive tracer and the compounds under test for 40 minutes at 37° C.
After the supernatant liquid had been removed by centrifuging, the radioactivity associated with the pellet was determined with a liquid scintillator (a beta-counter). The specific binding was the difference between the binding in the absence and in the presence of 10^-5M pentagastrin.

[4] = tested on: gastric acid secretion induced by pentagastrin; assay: Antisecretive activity in anaesthetised rats (pentagastrin-stimulated gastric acid secretion); format: in vivo
Description: Antisecretive activity in anaesthetised rats
Antisecretive activity in rats was determined with the use of male animals each weighing about 200 g, anaesthetised with urethane. Gastric secretion was stimulated with pentagastrin. The method of K. S. Lai (Gut 5, (1964), 327-341) was used, slightly modified.
After tracheotomy, cannulae were inserted in the oesophagus and the duodenum. A tepid solution. (37° C.) of 0.25 mM NaOH was perfused and passed through the stomach by means of a peristaltic pump at a constant flow rate of 1 ml/minute. After stabilisation for 20 minutes, the stimulating agent, dissolved in a physiological solution, was perfused for 120 minutes at a dose of 30 mcg/Kg/h in a volume of 0.95 ml/hour. After perfusion for 60 minutes (the basal stimulation), the product under test was administered as an intravenous bolus (I.V.) and the perfusion of the stimulant continued for a further 60 minutes. Acid secretion was recorded continuously as a function of time.
The activity of the product was evaluated as the percentage reduction in the secreted acidity after the administration of the product compared with the base acidity measured during the first 60 minutes of collection during which only the pentagastrin was present.
Different doses of the antagonist compounds tested were administered so that an ID50, that is, the dose (in mg/Kg I.V.) capable of inhibiting the effect of pentagastrin by 50%, could be calculated.
The results thus obtained are illustrated in the following table (Table 1) in which the activities of the compounds are expressed as the ID50s under the stimulus of 30 mcg/Kg/h of pentagastrin.

[5] = pentagastrin + C-5 3 mg/Kg i.p. twice a day
[6] = pentagastrin + C-5 10 mg/Kg i.p. twice a day

Structure (SMILES): O=C(O)CC[C@@H](NC(=O)c1cc(Cl)cc(Cl)c1)C(=O)N1CCC2(CCCC2)CC1 [Compound C5]
- Effect on colic tumour weight and DNA content (in words) ([1]; mice): can inhibit both the aforementioned trophic effects of pentagastrin in a significant and dose-dependent manner
- Tumorous DNA, Mean [1, 5]: 3.24 ± 0.42 mg
- Weight of the colic tumor, Mean ± SD [1, 5]: 601.5 ± 91.7 mg
- Tumorous DNA, Mean [1, 6]: 2.94 ± 0.31 mg
- Weight of the colic tumor, Mean ± SD [1, 6]: 554 ± 61.7 mg
- Variation % (Mean ± SD) from base (0-60 min) ([2]; 5 mg/Kg I.V., period 60-120 min): -36.0 ± 16.3%
- Variation % (Mean ± SD) from base (0-60 min) ([2]; 5 mg/Kg I.V., period 120-180 min): -20.5 ± 13.1%
- Variation % (Mean ± SD) from base (0-60 min) ([2]; 10 mg/Kg I.V., period 60-120 min): -59.5 ± 5.0%
- Variation % (Mean ± SD) from base (0-60 min) ([2]; 10 mg/Kg I.V., period 120-180 min): -31.9 ± 1.3%
- Variation % (Mean ± SD) from base (0-60 min) ([2]; 30 mg/Kg I.V., period 60-120 min): -67.8 ± 4.8%
- Variation % (Mean ± SD) from base (0-60 min) ([2]; 30 mg/Kg I.V., period 120-180 min): -48.1 ± 1.7%
- ED50 ([2]; 1 h, conscious dogs, I.V. bolus, period 60-120 min (first hour after administration)): 8.9 mg/kg
- ED50 ([2]; 2 h, conscious dogs, I.V. bolus, period 120-180 min (second hour after administration)): 32.5 mg/kg
- ID50 ([2]; conscious dogs, I.V. bolus, period 60-120 min (first hour after administration), 60 min): ~10 mg/kg
- Inhibition of gastric acid secretion induced by pentagastrin in dogs (in words) ([2]; conscious dogs, first hour after bolus): potent inhibitors of gastric acid secretion induced by pentagastrin in dogs
- IC50 ([3]; pentagastrin tritiate ligand, 40 minutes at 37° C., read-out: IC50, inhibition of the binding of pentagastrin): 110 nM
- Activity on the central receptor relative to C-30 ([3]; vs C-30): three times less active
- ED50 ([4]; Rattus norvegicus, iv, anaesthetised male rats, pentagastrin 30 mcg/Kg/h, I.V. bolus, IN with bound, read-out: Antagonistic activity (ID50) towards gastric acid secretion induced by pentagastrin): 15 mg/kg
- Antigastrin activity (in words) ([4]; anaesthetised rats, pentagastrin 30 mcg/Kg/h): particularly favourable
- Activity as peripheral pentagastrin inhibitor relative to compound C-30 ([4]; rats, vs C-30): slightly more active
